Test results from patent US11534448B2, “Use of canagliflozin in preparation of antitumor drug” (ZHEJIANG UNIVERSITY, priority 2019, dated 2022).

Assays:
Assay type in all cases: cell-based, human
[1] = test system: PD-L1; test: Western blotting of PD-L1 total protein expression in tumor cells; conditions: canagliflozin 20 μM + IFNγ 10 ng/mL, 24 h, FIG. 1
Experimental: Multiple human tumor cells, non-small cell lung cancer H1299 cells and osteosarcoma MG63 cells, were selected and respectively inoculated in 6-well plates (1.0×10^6 cells/well), and incubated overnight in incubator at 37° C. with 5% CO2. On the next day, each plate was added with canagliflozin (20 μM) and γ-interferon (IFNγ, 10 ng/mL), and after 24 hours, the cells were collected and lysed to extract the proteins. The expression of PD-L1 in the cells were detected by Western blotting.

[2] = test system: PD-L1; test: PD-L1 protein stability (cycloheximide chase, Western blotting, gray-scale analysis); conditions: H1299 cells; IFNγ 10 ng/mL 24 h, then CHX (10 g/mL) + canagliflozin 20 μM vs CHX alone; 0-12 h; FIG. 3
Experimental: The non-small cell lung cancer H1299 cells were inoculated in 6-well plates (1.0×10^6 cells/well), and incubated overnight in incubator at 37° C. with 5% CO2. On the next day, the plates were first added with γ-interferon (IFNγ, 10 ng/mL), and after 24 hours, a protein synthesis inhibitor cycloheximide (CHX, […]) or a co-administration group of CHX ([…])+canagliflozin (20 μM) was administrated simultaneously for these plates. After 0 h, 2 h, 4 h, 6 h, 8 h, and 12 h, respectively, the cells were collected to detect the change of the protein level of PD-L1 in the cells by Western blotting, and a gray-scale analysis was performed to plot a curve for investigating the protein stability.

[3] = test system: osteosarcoma MG63 cells; test: Killing effect of activated T cells on co-incubated tumor cells (crystal violet staining); conditions: MG63 cells treated with canagliflozin 20 μM + IFNγ 10 ng/mL for 24 h, PD-L1 antibody drug as positive control, FIG. 4
Experimental: (§1) PBMC cells were isolated from human blood samples using Ficoll separation solution, and then stimulated with CD3 and CD28 for 3 days to activate T cells in PBMC, and in the meantime, interleukin-2 (IL-2, 50 U/uL) was administrated to maintain the growth of T cells. The activated T cells were co-incubated with the tumor cells that had been treated with canagliflozin (20 μM) and γ-interferon (IFNγ, 10 ng/mL) for 24 hours. A PD-L1 antibody drug was used as a positive control. The killing effect of T cells on tumor cells was investigated, and a crystal violet staining method was employed to investigate the killing effect of T cells on tumor cells.

[4] = test system: non-small cell lung cancer H1299 cells; test: as above; conditions: H1299 cells treated with canagliflozin 20 μM + IFNγ 10 ng/mL for 24 h, PD-L1 antibody drug as positive control, FIG. 4
Experimental: as §1

[5] = test system: PD-L1; test: Flow cytometry of PD-L1 expression on cell surfaces; conditions: canagliflozin 20 μM + IFNγ 10 ng/mL, 24 h, FIG. 2
Experimental: Two human tumor cell lines, non-small cell lung cancer H1299 cells and osteosarcoma MG63 cells, were selected and respectively inoculated in 6-well plates (1.0×10^6 cells/well), and incubated overnight in incubator at 37° C. with 5% CO2. On the next day, each plate was added with canagliflozin (20 μM) and γ-interferon (IFNγ, 10 ng/mL), and after 24 hours, the PD-L1 expressions on the cell surfaces were detected with flow cytometry.

[6] = non-small cell lung cancer H1299 cells

Q: What does the source list for `Cc1ccc([C@@H]2O[C@H](CO)[C@@H](O)[C@H](O)[C@H]2O)cc1Cc1ccc(-c2ccc(F)cc2)s1` [canagliflozin, (1S)-1,5-anhydro-1-C-[3-[[5-(4-fluorophenyl)-2-thienyl]methyl]-4-methylphenyl]-D-glucitol]?
A: PD-L1 total protein expression [1, 6]: significantly inhibited the PD-L1 total protein expression; PD-L1 total protein expression ([1]; osteosarcoma MG63 cells): significantly inhibited the PD-L1 total protein expression; degradation of the PD-L1 protein [2]: significantly promoted the degradation of the PD-L1 protein; killing effect of T cells on tumor cells [3]: significantly enhanced the killing effect of T cells on tumor cells; killing effect of T cells on tumor cells [4]: significantly enhanced the killing effect of T cells on tumor cells; PD-L1 protein expression on the cell surface [5, 6]: significantly inhibited the PD-L1 protein expression on the tumor cell surfaces; PD-L1 protein expression on the cell surface ([5]; osteosarcoma MG63 cells): significantly inhibited the PD-L1 protein expression on the tumor cell surfaces
